{
  "source": "paper PMC6442119",
  "about": "“The antitumor activity of CYB-L10, a human topoisomerase IB catalytic inhibitor” (Journal of Enzyme Inhibition and Medicinal Chemistry, 2019)",
  "key": {"[1]": {"test_system": "60 human clinical cancer cell lines (NCI60)", "assay": "NCI60 assay, mean-graph midpoint", "type": "cell-based", "settings": "NCI60, 48 h", "description": "(§1) CYB-L10 was tested using the protocols by the NCI, which has been described previously. […] The overall antiproliferative potential is quantified as a mean-graph midpoint (MGM). […] It was selected and submitted to National Cancer Institute (NCI, USA) for a developmental therapeutics assay against the 60 clinical tumor cell lines representing nine tissue types (NCI60)[23–25]. The tumor cells were incubated with CYB-L10 for 48 h and stained with sulphorhodamine B dye. Cell growth inhibition (GI50) was calculated relative to the control without compound."}, "[2]": {"test_system": "A498", "assay": "NCI60 assay", "type": "cell-based", "settings": "Homo sapiens; Renal cancer, A498, 48 h", "description": "as §1"}, "[3]": {"test_system": "ACHN", "assay": "NCI60 assay", "type": "cell-based", "settings": "Homo sapiens, Renal cancer, 48 h", "description": "as §1"}, "[4]": {"test_system": "BT-549", "assay": "NCI60 assay", "type": "cell-based", "settings": "Homo sapiens; Breast cancer, BT-549, 48 h", "description": "as §1"}, "[5]": {"test_system": "CAKI-1", "assay": "NCI60 assay", "type": "cell-based", "settings": "Homo sapiens; Renal cancer, CAKI-1, 48 h", "description": "as §1"}, "[6]": {"test_system": "IGROV1", "assay": "NCI60 assay", "type": "cell-based", "settings": "Homo sapiens, IGROV-1; Ovarian cancer, IGROV1, 48 h", "description": "as §1"}, "[7]": {"test_system": "LOX IMVI", "assay": "NCI60 assay", "type": "cell-based", "settings": "Homo sapiens, Melanoma, 48 h", "description": "as §1"}, "[8]": {"test_system": "MOLT-4", "assay": "NCI60 assay", "type": "cell-based", "settings": "Homo sapiens; Leukemia, MOLT-4, 48 h", "description": "as §1"}, "[9]": {"test_system": "SF-268", "assay": "NCI60 assay", "type": "cell-based", "settings": "Homo sapiens; CNS cancer, SF-268, 48 h", "description": "as §1"}, "[10]": {"test_system": "SK-MEL-28", "assay": "NCI60 assay", "type": "cell-based", "settings": "Homo sapiens; Melanoma, SK-MEL-28, 48 h", "description": "as §1"}, "[11]": {"test_system": "SNB-75", "assay": "NCI60 assay", "type": "cell-based", "settings": "Homo sapiens; CNS cancer, SNB-75, 48 h", "description": "as §1"}, "[12]": {"test_system": "SW-620", "assay": "NCI60 assay", "type": "cell-based", "settings": "Homo sapiens; Colon cancer, SW-620, 48 h", "description": "as §1"}, "[13]": {"test_system": "T-47D", "assay": "NCI60 assay", "type": "cell-based", "settings": "Homo sapiens, T47D, Breast cancer, 48 h", "description": "as §1"}, "[14]": {"test_system": "U251", "assay": "NCI60 assay", "type": "cell-based", "settings": "Homo sapiens, U-251; CNS cancer, U251, 48 h", "description": "as §1"}, "[15]": {"test_system": "MCF-7/ADR", "assay": "MTT assay", "type": "cell-based, human"}, "[16]": {"test_system": "HepG2", "assay": "MTT assay", "type": "cell-based", "settings": "Homo sapiens; Parental cell line HepG2, MTT, 72 h"}, "[17]": {"assay": "Pharmacokinetic study in rat", "type": "in vivo", "settings": "male, Sprague-Dawley, plasma, SD rats", "description": "Blood samples (200 µL) were collected into heparinized tubes via the jugular vein at the following times: 0.083, 0.25, 0.5, 1, 2, 5, 7, and 24 h after dosing. Plasma samples (100 µL) were obtained after centrifugation for 10 min at 3000 rpm and stored at −20 °C until used for analysis. The plasma was detected through LC-MS/MS.\nThe in vivo pharmacokinetic (PK) study of CYB-L10 was conducted in SD rats. The SD rats were divided into two groups (n = 2) and treated by i.v. injection at 1 mg/kg dose and i.g. at 5 mg/kg dose, respectively. The plasma samples were collected up to 24 h postdose and measured for the concentration of CYB-L10. By i.v. administration, the AUC0→∞ was 241 ± 40 h·ng/mL, and T1/2 was 18.4 ± 5.12 h."}, "[18]": {"biological_target": "P-glycoprotein (Pgp) (Homo sapiens, UniProt P08183)", "sequence (P08183 whole entry)": "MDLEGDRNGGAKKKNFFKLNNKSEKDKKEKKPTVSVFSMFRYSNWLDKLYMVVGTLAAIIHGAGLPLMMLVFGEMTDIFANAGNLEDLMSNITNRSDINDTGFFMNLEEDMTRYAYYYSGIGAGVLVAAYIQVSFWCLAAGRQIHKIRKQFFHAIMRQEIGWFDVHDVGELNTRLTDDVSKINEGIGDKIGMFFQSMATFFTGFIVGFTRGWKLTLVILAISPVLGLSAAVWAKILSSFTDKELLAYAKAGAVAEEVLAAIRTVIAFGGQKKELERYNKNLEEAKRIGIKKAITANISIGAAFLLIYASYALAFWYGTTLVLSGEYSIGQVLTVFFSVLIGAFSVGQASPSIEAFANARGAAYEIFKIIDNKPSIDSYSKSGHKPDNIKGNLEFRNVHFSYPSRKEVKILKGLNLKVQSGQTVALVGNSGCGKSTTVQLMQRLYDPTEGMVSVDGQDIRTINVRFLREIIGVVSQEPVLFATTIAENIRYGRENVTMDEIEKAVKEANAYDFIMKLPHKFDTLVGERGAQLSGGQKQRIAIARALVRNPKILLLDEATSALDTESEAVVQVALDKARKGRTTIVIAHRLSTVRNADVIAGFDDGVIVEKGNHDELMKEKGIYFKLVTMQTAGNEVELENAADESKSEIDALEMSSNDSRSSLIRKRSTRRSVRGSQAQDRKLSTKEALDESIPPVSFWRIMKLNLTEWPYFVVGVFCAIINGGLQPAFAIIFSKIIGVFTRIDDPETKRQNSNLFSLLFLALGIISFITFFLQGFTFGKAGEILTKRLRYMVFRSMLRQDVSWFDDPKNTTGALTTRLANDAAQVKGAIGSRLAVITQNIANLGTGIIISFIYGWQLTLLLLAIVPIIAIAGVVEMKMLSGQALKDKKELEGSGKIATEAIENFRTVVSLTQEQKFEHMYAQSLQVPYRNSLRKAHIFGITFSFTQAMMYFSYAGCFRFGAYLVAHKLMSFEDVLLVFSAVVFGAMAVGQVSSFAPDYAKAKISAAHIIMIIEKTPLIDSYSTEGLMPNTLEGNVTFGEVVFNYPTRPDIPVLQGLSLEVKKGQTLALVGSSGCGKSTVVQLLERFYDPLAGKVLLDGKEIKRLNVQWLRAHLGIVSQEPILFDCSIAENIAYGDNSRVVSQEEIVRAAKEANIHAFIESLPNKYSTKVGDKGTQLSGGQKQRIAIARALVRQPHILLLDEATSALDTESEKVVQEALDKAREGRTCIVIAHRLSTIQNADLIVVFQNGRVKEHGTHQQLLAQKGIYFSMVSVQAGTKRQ", "assay": "Pgp substrate assessment in Pgp-overexpressing resistant sublines", "settings": "from MCF-7/ADR and HepG2/ADR sublines with overexpressed Pgp"}},
  "note": "“Also recorded” adds a separate entry of the source.",
  "data": [
    {"smiles": "O=C1c2cccnc2C(=O)c2c1c(C(=O)OCCN1CCOCC1)c1ccccn21", "note": "[CYB-L10]", "values": [
      {"measurement": "MGM (mean graph midpoint for growth inhibition of all human cancer cell lines)", "setting": "[1]", "value": 0.050, "unit": "µM"},
      {"measurement": "GI50", "setting": "[2]", "value": 34.3, "unit": "nM"},
      {"measurement": "GI50", "setting": "[3]", "value": "< 10", "unit": "nM"},
      {"measurement": "GI50", "setting": "[4]", "value": 55.8, "unit": "nM"},
      {"measurement": "GI50", "setting": "[5]", "value": 33.9, "unit": "nM"},
      {"measurement": "GI50", "setting": "[6]", "value": 46.2, "unit": "nM"},
      {"measurement": "GI50", "setting": "[7]", "value": "< 10", "unit": "nM"},
      {"measurement": "GI50", "setting": "[8]", "value": 217, "unit": "nM"},
      {"measurement": "GI50", "setting": "[9]", "value": 18.5, "unit": "nM"},
      {"measurement": "GI50", "setting": "[10]", "value": 54.6, "unit": "nM"},
      {"measurement": "GI50", "setting": "[11]", "value": "< 10", "unit": "nM"},
      {"measurement": "GI50", "setting": "[12]", "value": "< 10", "unit": "nM"},
      {"measurement": "GI50", "setting": "[13]", "value": 961, "unit": "nM"},
      {"measurement": "GI50", "setting": "[14]", "value": 10.9, "unit": "nM"},
      {"measurement": "Resistance ratio", "setting": "[15]; GI50 MCF-7/ADR / GI50 MCF-7", "value": 6.6},
      {"measurement": "GI50", "setting": "[15]; Homo sapiens, NCI/ADR-RES, Resistant subline MCF-7/ADR, MTT, 72 h", "value": "600 ± 210", "unit": "nM"},
      {"measurement": "GI50", "setting": "[16]", "value": "65 ± 30", "unit": "nM"},
      {"measurement": "AUC(0-inf)", "setting": "[17]; iv, i.v. 1 mg/kg", "value": "241 ± 40", "unit": "ng·h/mL"},
      {"measurement": "half-life", "setting": "[17]; iv, i.v. 1 mg/kg", "value": "18.4 ± 5.12", "unit": "h"},
      {"measurement": "bioavailability", "setting": "[17]; oral, i.g. 5 mg/kg vs i.v. 1 mg/kg, read-out: F (bioavailability)", "value": 6.3, "unit": "%"},
      {"measurement": "AUC(0-inf)", "setting": "[17]; po, i.g. 5 mg/kg", "value": "76 ± 16.5", "unit": "ng·h/mL"},
      {"measurement": "Cmax", "setting": "[17]; po, i.g. 5 mg/kg", "value": "24.7 ± 6.59", "unit": "ng/mL"},
      {"measurement": "Tmax", "setting": "[17]; po, i.g. 5 mg/kg", "value": "0.46 ± 0.1", "unit": "h"},
      {"measurement": "half-life", "setting": "[17]; po, i.g. 5 mg/kg", "value": "18.4 ± 7.77", "unit": "h"},
      {"measurement": "substrate of the Pgp", "setting": "[18]", "value": "not a substrate of the P-glycoprotein; also recorded: not to be a substrate of the Pgp"}
    ]}
  ]
}
